Laboratory results published in ChEMBL document CHEMBL5291721, “A preclinical secondary pharmacology resource illuminates target-adverse drug reaction associations of marketed drugs” (Nat Commun, 2023).

Tests used:
[1] = target: T1, Adenosine receptor A3 (Homo sapiens, UniProt P0DMS8)
T1 sequence (P0DMS8 whole entry): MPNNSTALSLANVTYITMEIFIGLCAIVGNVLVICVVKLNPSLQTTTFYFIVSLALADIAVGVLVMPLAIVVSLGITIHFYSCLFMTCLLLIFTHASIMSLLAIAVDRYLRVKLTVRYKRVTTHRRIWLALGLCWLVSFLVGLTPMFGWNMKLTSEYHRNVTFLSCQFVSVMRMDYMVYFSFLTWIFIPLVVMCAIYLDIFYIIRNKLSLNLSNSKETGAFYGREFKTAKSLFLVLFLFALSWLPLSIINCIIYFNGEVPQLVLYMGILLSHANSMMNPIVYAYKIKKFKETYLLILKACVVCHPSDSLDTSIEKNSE

[2] = target: T2, Muscarinic acetylcholine receptor M1 (Homo sapiens, UniProt P11229); assay type: functional, cell-based
T2 sequence (P11229 whole entry): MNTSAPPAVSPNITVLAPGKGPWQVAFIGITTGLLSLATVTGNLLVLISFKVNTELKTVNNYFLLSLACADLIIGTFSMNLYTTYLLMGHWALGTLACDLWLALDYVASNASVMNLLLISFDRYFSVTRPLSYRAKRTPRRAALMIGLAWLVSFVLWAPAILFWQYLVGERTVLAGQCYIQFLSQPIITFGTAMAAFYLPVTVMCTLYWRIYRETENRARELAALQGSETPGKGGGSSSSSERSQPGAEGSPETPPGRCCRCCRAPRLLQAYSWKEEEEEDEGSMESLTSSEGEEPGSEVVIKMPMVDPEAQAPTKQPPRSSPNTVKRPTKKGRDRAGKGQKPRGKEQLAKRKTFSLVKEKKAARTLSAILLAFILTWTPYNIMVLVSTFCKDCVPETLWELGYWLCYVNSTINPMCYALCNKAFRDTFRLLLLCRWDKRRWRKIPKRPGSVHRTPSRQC

[3] = target: T3, Estrogen receptor (Homo sapiens, UniProt P03372)
T3 sequence (P03372 whole entry): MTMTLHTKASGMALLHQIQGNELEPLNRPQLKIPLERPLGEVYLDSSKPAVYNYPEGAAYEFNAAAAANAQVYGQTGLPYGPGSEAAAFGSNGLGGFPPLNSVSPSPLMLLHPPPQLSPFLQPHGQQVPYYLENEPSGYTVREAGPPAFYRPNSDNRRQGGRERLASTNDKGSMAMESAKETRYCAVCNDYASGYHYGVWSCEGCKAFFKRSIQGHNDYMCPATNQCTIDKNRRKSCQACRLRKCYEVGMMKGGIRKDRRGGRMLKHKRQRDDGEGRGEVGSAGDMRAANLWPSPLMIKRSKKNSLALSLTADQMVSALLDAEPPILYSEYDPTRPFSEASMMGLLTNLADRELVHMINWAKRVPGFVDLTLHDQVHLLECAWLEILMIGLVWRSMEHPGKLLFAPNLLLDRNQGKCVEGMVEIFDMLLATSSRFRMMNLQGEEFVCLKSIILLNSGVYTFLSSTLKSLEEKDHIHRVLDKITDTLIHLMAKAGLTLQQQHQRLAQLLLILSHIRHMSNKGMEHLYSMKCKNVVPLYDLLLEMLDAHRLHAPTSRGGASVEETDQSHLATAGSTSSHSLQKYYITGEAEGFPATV

[4] = target: Vascular endothelial growth factor receptor 2 (Homo sapiens, UniProt P35968); assay type: functional
[5] = target: T4, Alpha-2A adrenergic receptor (Homo sapiens, UniProt P08913); assay type: functional, cell-based
T4 sequence (P08913 whole entry): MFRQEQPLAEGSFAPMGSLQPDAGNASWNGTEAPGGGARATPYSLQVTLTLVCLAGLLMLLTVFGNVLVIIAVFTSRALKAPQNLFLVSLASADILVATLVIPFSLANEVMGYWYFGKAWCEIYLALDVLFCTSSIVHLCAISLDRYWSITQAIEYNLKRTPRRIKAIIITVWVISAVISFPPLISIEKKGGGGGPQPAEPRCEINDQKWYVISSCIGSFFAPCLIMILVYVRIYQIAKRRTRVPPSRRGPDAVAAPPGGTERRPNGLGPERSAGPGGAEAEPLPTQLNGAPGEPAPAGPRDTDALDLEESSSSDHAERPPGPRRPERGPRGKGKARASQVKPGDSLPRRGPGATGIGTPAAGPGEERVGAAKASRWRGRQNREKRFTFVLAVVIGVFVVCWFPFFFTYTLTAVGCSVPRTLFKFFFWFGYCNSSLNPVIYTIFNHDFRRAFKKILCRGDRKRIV

[6] = target: T4, Alpha-2A adrenergic receptor; assay type: functional, cell-based; remark: listed apart in the source
[7] = target: Cannabinoid receptor 1 (Homo sapiens, UniProt P21554); assay type: functional, cell-based
[8] = target: T1, Adenosine receptor A3; remark: listed apart in the source
[9] = target: Sodium-dependent noradrenaline transporter (Homo sapiens, UniProt P23975)
[10] = target: T5, Equilibrative nucleoside transporter 1 (Homo sapiens, UniProt Q99808)
T5 sequence (Q99808 whole entry): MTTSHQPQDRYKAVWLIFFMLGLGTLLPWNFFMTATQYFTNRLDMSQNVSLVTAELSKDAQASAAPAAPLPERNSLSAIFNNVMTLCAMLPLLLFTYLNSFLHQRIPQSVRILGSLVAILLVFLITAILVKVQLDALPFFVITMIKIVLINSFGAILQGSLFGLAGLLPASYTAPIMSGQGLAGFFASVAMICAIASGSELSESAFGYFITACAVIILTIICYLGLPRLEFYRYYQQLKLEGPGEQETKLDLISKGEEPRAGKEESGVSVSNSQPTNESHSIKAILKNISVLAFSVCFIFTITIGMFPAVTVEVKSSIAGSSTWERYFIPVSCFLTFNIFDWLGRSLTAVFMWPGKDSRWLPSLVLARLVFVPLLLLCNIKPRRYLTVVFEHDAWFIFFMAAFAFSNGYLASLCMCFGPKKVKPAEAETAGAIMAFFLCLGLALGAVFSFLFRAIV

[11] = target: Histamine H3 receptor (Homo sapiens, UniProt Q9Y5N1)
Further: assay procedure not described here.

Sequence of Vascular endothelial growth factor receptor 2 (P35968 whole entry): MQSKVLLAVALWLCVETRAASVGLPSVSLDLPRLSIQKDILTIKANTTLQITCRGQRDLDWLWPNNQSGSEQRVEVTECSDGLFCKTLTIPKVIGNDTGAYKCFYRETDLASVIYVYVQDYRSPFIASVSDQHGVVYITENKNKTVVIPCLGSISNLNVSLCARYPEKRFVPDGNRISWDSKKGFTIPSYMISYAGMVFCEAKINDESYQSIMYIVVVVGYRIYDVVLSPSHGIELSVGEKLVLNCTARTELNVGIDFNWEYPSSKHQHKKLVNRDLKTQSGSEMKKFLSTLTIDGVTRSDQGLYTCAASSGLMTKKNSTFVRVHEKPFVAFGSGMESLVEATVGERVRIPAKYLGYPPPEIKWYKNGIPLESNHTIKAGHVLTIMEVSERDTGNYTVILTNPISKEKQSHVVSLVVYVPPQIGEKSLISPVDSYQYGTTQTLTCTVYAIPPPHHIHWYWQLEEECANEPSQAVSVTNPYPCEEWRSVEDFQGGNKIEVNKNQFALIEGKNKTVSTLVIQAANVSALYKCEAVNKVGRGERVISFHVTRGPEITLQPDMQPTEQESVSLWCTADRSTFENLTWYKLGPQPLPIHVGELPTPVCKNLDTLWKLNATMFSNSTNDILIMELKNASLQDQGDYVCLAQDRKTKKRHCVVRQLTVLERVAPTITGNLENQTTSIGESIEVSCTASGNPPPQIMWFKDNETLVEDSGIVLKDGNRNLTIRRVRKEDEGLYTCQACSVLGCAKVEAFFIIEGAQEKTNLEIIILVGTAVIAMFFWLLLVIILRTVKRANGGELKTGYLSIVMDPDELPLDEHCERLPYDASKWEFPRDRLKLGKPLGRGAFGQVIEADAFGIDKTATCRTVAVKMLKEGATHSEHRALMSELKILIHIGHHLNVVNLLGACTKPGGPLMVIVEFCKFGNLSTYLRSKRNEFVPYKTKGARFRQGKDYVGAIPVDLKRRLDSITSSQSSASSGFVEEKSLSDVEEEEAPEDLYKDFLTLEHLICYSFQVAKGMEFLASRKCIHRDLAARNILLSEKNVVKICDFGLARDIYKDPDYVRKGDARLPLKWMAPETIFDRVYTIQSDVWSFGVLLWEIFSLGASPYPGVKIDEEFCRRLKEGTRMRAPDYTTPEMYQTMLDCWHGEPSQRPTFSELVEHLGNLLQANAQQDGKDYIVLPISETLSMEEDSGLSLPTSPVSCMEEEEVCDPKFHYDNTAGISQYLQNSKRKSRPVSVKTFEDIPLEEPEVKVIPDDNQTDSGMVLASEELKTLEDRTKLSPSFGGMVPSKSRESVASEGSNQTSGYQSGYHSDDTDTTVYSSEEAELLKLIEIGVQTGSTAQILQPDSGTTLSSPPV
Sequence of Histamine H3 receptor (Q9Y5N1 whole entry): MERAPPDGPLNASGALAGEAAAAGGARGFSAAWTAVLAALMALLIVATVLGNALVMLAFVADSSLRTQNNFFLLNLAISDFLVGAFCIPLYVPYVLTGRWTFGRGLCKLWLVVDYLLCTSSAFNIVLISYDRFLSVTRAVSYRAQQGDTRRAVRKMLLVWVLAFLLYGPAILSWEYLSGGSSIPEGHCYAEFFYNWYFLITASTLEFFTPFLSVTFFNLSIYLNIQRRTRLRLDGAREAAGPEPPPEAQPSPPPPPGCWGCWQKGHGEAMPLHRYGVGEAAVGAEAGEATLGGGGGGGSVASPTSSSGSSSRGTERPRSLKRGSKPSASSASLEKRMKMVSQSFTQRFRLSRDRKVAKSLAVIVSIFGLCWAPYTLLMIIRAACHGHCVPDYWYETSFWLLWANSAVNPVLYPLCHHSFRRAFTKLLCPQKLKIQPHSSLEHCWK
Sequence of Sodium-dependent noradrenaline transporter (P23975 whole entry): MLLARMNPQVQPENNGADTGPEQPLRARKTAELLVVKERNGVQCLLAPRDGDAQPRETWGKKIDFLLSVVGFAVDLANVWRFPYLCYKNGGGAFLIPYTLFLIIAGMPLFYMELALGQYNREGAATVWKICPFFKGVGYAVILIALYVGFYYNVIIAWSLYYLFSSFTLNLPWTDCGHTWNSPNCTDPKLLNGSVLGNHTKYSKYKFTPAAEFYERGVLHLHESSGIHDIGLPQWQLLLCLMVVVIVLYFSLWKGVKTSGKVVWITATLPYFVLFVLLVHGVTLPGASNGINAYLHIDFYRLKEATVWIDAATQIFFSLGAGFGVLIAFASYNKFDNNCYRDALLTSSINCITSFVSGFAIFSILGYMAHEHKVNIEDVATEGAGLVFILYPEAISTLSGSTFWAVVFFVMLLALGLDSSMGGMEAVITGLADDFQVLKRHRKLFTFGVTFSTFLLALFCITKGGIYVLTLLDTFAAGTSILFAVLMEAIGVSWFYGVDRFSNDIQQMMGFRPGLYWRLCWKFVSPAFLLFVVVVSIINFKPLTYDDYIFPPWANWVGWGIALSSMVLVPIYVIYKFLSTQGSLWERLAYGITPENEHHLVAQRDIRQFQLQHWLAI
Sequence of Cannabinoid receptor 1 (P21554 whole entry): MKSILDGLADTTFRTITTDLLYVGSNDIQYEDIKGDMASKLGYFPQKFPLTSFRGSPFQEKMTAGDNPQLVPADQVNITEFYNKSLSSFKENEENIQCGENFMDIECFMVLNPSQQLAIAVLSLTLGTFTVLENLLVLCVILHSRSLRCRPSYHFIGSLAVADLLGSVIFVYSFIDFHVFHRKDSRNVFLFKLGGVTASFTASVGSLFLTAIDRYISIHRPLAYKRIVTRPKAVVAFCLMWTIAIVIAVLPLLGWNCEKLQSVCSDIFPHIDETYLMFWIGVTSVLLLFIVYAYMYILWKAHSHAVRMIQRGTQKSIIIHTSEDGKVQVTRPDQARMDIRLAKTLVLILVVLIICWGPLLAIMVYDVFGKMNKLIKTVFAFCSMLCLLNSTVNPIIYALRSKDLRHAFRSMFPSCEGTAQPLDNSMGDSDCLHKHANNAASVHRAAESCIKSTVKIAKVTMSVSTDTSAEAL

| SMILES | AC50 [1] [µM] | AC50 [2] [µM] | AC50 [3] [µM] | AC50 [4] [µM] | other results |
| --- | --- | --- | --- | --- | --- |
| CC(=O)NO [ACETOHYDROXAMIC ACID] | > 30 | > 30 |  |  |  |
| O=C(O)c1ccccc1 [BENZOIC ACID] | > 30 |  | > 30 | > 30 |  |
| CC(C)NC(=N)NC(=N)Nc1ccc(Cl)c(Cl)c1 [CHLORPROGUANIL] |  |  | > 30 |  | AC50 [5]: > 30 µM; AC50 [6]: > 30 µM; AC50 [7]: > 30 µM |
| Cc1cc(C2CCCCC2)n(O)c(=O)c1 [CICLOPIROX] | > 30 |  | > 30 | > 30 | AC50 [8]: > 30 µM; AC50 [9]: > 30 µM |
| C[N+](C)(C)CCOP(=O)(O)OP(=O)([O-])OC[C@H]1O[C@@H](n2ccc(N)nc2=O)[C@H](O)[C@@H]1O [CITICOLINE] |  | > 30 | > 30 |  | AC50 [5]: > 30 µM; AC50 [6]: > 30 µM; AC50 [7]: > 30 µM |
| O=C(O)Cc1ccccc1Nc1c(Cl)cccc1Cl [DICLOFENAC] | > 3 |  |  | > 3 | AC50 [8]: > 30 µM; AC50 [5]: > 10 µM; AC50 [6]: > 10 µM; AC50 [7]: > 30 µM; AC50 [10]: > 30 µM; AC50 [9]: > 30 µM; AC50 [11]: > 10 µM |
| CC[C@H]1OC(=O)[C@H](C)[C@@H](O[C@H]2C[C@@](C)(OC)[C@@H](O)[C@H](C)O2)[C@H](C)[C@@H](O[C@@H]2O[C@H](C)C[C@H](N(C)C)[C@H]2O)[C@](C)(O)C[C@@H](C)[C@@H]2N[C@@H](COCCOC)O[C@H]([C@H]2C)[C@]1(C)O [DIRITHROMYCIN] |  | > 30 | > 30 |  |  |
| CCCCc1oc2ccc(NS(C)(=O)=O)cc2c1C(=O)c1ccc(OCCCN(CCCC)CCCC)cc1 [DRONEDARONE] | 1.54 | > 30 |  |  |  |
| CC(C(=O)O)c1cccc(Oc2ccccc2)c1 (configuration not stated) [FENOPROFEN] | > 30 |  |  | > 30 |  |
| CC(C)C(=O)Oc1ccc(CO)cc1[C@H](CCN(C(C)C)C(C)C)c1ccccc1 [FESOTERODINE] | > 30 | > 30 | > 30 |  |  |
| CC1(C)O[C@@H]2C[C@H]3[C@@H]4C[C@H](F)C5=CC(=O)C=C[C@]5(C)[C@@]4(F)[C@@H](O)C[C@]3(C)[C@]2(C(=O)CO)O1 [FLUOCINOLONE ACETONIDE] | > 30 |  | > 30 | > 30 |  |
| O=C(O)P(=O)(O)O [FOSCARNET] | > 30 |  |  | > 30 |  |
| Cc1ccc(C)c(OCCCC(C)(C)C(=O)O)c1 [GEMFIBROZIL] | > 30 |  | > 30 | > 30 | AC50 [8]: > 30 µM; AC50 [5]: > 10 µM; AC50 [6]: > 10 µM; AC50 [7]: > 30 µM; AC50 [10]: > 30 µM; AC50 [9]: > 10 µM; AC50 [11]: > 10 µM |
| C#C[C@]1(O)C=C[C@H]2[C@@H]3CCC4=CC(=O)CC[C@@H]4[C@H]3CC[C@@]21CC [GESTODENE] |  |  | 1.2 |  |  |
| COc1ccccc1OC1(C)OC(=O)c2ccccc2O1 (configuration not stated) [GUAIMESAL] |  | > 30 | > 30 |  | AC50 [8]: > 30 µM; AC50 [10]: > 30 µM; AC50 [9]: > 30 µM; AC50 [11]: > 30 µM |
| N=C(N)N/N=C/c1c(Cl)cccc1Cl [GUANABENZ] | > 30 |  | > 30 | > 30 |  |

| SMILES | AC50 [1] [µM] | AC50 [2] [µM] | AC50 [3] [µM] | AC50 [4] [µM] | other results |
| --- | --- | --- | --- | --- | --- |
| COc1cc(C(C)=O)ccc1OCCCN1CCC(c2noc3cc(F)ccc23)CC1 [ILOPERIDONE] |  | > 10 | > 30 |  | AC50 [8]: > 30 µM; AC50 [5]: > 30 µM; AC50 [6]: 0.45 µM; AC50 [7]: > 30 µM; AC50 [10]: > 30 µM; AC50 [9]: 1.63 µM; AC50 [11]: > 30 µM |
| COc1c2occc2c(OC)c2c(=O)cc(C)oc12 [KHELLIN] | > 30 | > 30 |  | > 30 |  |
| CC(C)[C@@H]1CC[C@@H](C)C[C@H]1O [LEVOMENTHOL] | > 30 | > 30 |  | > 30 |  |
| COC(=O)[C@@H](N)Cc1ccc(O)c(O)c1 [MELEVODOPA] | > 30 | > 30 |  | > 30 |  |
| C=N[C@@H](C(=O)N[C@@H]1C(=O)N2[C@@H]1SC(C)(C)[C@@H]2C(=O)O)c1ccccc1 [METAMPICILLIN] | > 30 | > 30 |  | > 30 |  |
| COc1ccc2[nH]c([S+]([O-])Cc3ncc(C)c(OC)c3C)nc2c1 (configuration not stated) [OMEPRAZOLE] | 2.88 |  | > 30 | > 30 |  |
| CCCCC1C(=O)N(c2ccccc2)N(c2ccc(O)cc2)C1=O (configuration not stated) [OXYPHENBUTAZONE ANHYDROUS] | > 30 | > 30 |  | > 30 |  |
| O=C(O)CN(CCN(CC(=O)O)CC(=O)O)CCN(CC(=O)O)CC(=O)O [PENTETIC ACID] | > 30 | > 30 |  | > 30 |  |
| C[N+](C)(C)CCOC(=O)CCC(=O)OCC[N+](C)(C)C [SUXAMETHONIUM] | > 30 |  | > 30 | > 30 |  |
| Cc1ccc(C(=O)c2ccc(CC(=O)O)n2C)cc1 [TOLMETIN] | > 30 |  | > 30 | > 30 |  |
| Cc1ccccc1C(=O)Nc1ccc(C(=O)N2CCCC(O)c3cc(Cl)ccc32)c(C)c1 (configuration not stated) [TOLVAPTAN] | 11 | > 30 |  | > 30 |  |
| C[C@]12C=CC(=O)C=C1CC[C@H]1[C@@H]3C[C@@H](O)[C@](O)(C(=O)CO)[C@@]3(C)C[C@H](O)[C@@]12F [TRIAMCINOLONE] | > 30 |  | > 30 | > 30 |  |
| CC(C)C[C@H](NC(=O)[C@@H](O)[C@H](N)Cc1ccccc1)C(=O)O [UBENIMEX] |  |  | > 30 |  | AC50 [8]: > 30 µM; AC50 [5]: > 30 µM; AC50 [6]: > 30 µM; AC50 [7]: > 30 µM; AC50 [10]: > 30 µM; AC50 [9]: > 30 µM |
| CC[C@]12CCCN3CCc4c(n(c5ccccc45)[C@@](O)(C(=O)OC)C1)[C@@H]32 [VINCAMINE] | > 30 | > 30 |  | > 30 |  |
| CCC1=C[C@@H]2CN(C1)Cc1c([nH]c3ccccc13)[C@@](C(=O)OC)(c1cc3c(cc1OC)N(C)[C@H]1[C@@](O)(C(=O)OC)[C@H](OC(C)=O)[C@]4(CC)C=CCN5CC[C@]31[C@@H]54)C2 [VINORELBINE] | > 30 |  | > 30 | > 30 |  |
